The values below come from patent publication US12398155B2, “Thienopyridinone compounds” (Janssen Pharmaceutica NV, priority 2019, dated 2025).

Assay [1] addresses T1, NIH/3T3 cells overexpressing FGFR3 V555M-TACC3 fusion protein (Homo sapiens, UniProt P22607, V555M, cells depend on it).
T1 construct: NIH/3T3 FGFR3 V555M-TACC3 CTG; other: 72-hr incubation, CellTiter Glo; fused on or other part: C-terminal part of TACC3 (coiled-coil) fused behind the FGFR3 kinase domain; Q9Y6A5 (Transforming acidic coiled-coil-containing protein 3)
The assay can be described thus: NIH/3T3 FGFR3 V555M-TACC3 cell proliferation assay. Format: cell-based. The note with it: 72-hr incubation, CellTiter Glo; read-out: NIH/3T3 FGFR3 V555M-TACC3 CTG. Here is the method:
NIH/3T3 FGFR3 V555M-TACC3 Cell Proliferation Assay
(§1) In day 1, 90 μL of cell suspension (NIH/3T3 cells overexpressing FGFR3 V555M-TACC3 fusion protein) (total 30,000 cells per well in growth medium (DMEM containing 1% Glutamax, 10% FBS and 1% Pen/Strep)) was seeded in a 96-well plate and then incubated overnight at 37° C. and 5% CO2. In day 2, 10 μL of growth medium containing 10-fold stock solution of testing compound was added into cell cultures (9 dose points with 4× serial dilution, starting with 10 μM, 0.1% DMSO final). After 72-hr incubation at 37° C. and 5% CO2, in day 5 a volume of 50 μL CellTiter Glo (CTG) reagent was added into cell-containing 96-well plate and the plate was incubated at room temperature for 10 minutes before RLUs (relative light unit) were measured on a microplate reader with luminescence detection module. The RLU value was normalized to survival % and concentration-response curve was plotted using Prism to calculate IC50 (M), pIC50 (−log IC50) and HillSlope value.

In assay [2] the test system is NIH/3T3 cells overexpressing FGFR3 V555M-TACC3 fusion protein. The experiment in a line: NIH/3T3 FGFR3 V555M-TACC3 cellular phospho-ERK assay (in vitro PD assay). The assay is classed as cell-based. The note with it: Mus musculus, NIH3T3; 1-hr incubation, AlphaLISA p-ERK1/2; read-out: NIH/3T3 FGFR3 V555M-TACC3 pERK. Here is the method:
NIH/3T3 FGFR3 V555M-TACC3 Cellular Phospho-ERK Assay (In Vitro PD Assay)
50 μL of cell suspension (NIH/3T3 cells overexpressing FGFR3 V555M-TACC3 fusion protein) (total 10,000 cells per well in growth medium (DMEM containing 1% Glutamax, 10% FBS and 1% Pen/Strep)) was seeded in a 384-well plate. After overnight incubation at 37° C. and 5% CO2, 5.5 μL of growth medium containing 10× testing compound was added into cell cultures (10 dose points with 4× serial dilution, starting with 10 μM, 0.1% DMSO final). After 1-hr incubation at 37° C. and 5% CO2, the medium was depleted and AlphaLISA SureFire Ultra p-ERKI1/2 (Thr202/Tyr204) Assay Kit (from PerkinElmer) was applied for phospho-ERK level detection according to the kit instructions. The RFUs (relative fluorescence units were measured on EnVision microplate reader (ex. 680 nm, em. 615 nm) and concentration-response curve was plotted using Prism to calculate IC50 (M), pIC50 (−log IC50) and HillSlope value.
(Alpha assays give light when donor and acceptor beads are brought close together.)

Assay [3] addresses T2, NIH/3T3 cells overexpressing FGFR3 WT-TACC3 fusion protein (Homo sapiens, UniProt P22607).
T2 construct: NIH/3T3 FGFR3 WT-TACC3 CTG; other: 72-hr incubation, CellTiter Glo; fused on or other part: C-terminal part of TACC3 (coiled-coil) fused behind the FGFR3 kinase domain; Q9Y6A5 (Transforming acidic coiled-coil-containing protein 3)
The experiment in a line: NIH/3T3 FGFR3 WT-TACC3 cell proliferation assay. Format: cell-based. To be noted: 72-hr incubation, CellTiter Glo; read-out: NIH/3T3 FGFR3 WT-TACC3 CTG. As for the experimental part: NIH/3T3 FGFR3 WT-TACC3 Cell Proliferation Assay
as §1, with “WT-TACC3” for “V555M-TACC3”

Assay [4] relates to NIH/3T3 cells transfected with control vector. The experiment in a line: NIH/3T3 mock cell proliferation assay (counter assay, general toxicity). The assay is classed as cell-based. The note with it: Mus musculus, NIH3T3; 72-hr incubation, CellTiter Glo; read-out: NIH/3T3 MOCK CTG. Here is the method:
NIH/3T3 Mock Cell Proliferation Assay
as §1, with “cells transfected with the same control vector as in the above two proliferation assays)” for “cells overexpressing FGFR3 V555M-TACC3 fusion protein)”, “with 3×” for “with 4×”, “with 30” for “with 10”, “μM, 0.3%” for “μM, 0.1%”

Assay [5] deals with T3, human FGFR3 wild type enzyme (cytoplasmic domain) (Homo sapiens, UniProt P22607).
T3 construct: human FGFR3 wild type enzyme (cytoplasmic domain, from Cama Biosciences); purchased Cama Biosciences (so in the source)
T3 sequence (P22607 397-806 limits assumed): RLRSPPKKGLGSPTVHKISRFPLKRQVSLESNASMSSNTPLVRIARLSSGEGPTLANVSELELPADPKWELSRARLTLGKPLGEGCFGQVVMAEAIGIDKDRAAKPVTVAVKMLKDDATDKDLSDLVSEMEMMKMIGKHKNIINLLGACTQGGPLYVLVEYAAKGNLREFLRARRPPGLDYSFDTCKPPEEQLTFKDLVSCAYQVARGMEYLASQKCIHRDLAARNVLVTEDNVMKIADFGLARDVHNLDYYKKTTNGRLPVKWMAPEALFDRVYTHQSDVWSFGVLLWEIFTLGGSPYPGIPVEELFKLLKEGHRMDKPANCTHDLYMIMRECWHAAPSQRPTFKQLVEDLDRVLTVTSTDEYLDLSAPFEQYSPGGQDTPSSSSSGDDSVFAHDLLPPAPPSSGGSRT
The experiment in a line: FGFR3 wild type mobility shift assay (enzymatic assay). Format: biochemical. The note with it: 75 μM ATP, 50 minutes at 30° C.; read-out: FGFR3 wild type Caliper. Here is the method: FGFR3 Wild Type Mobility Shift Assay (Enzymatic Assay)
In a final reaction volume of 25 μL, 0.04 ng/μL human FGFR3 wild type enzyme (cytoplasmic domain, from Cama Biosciences) was incubated with 75 μM ATP, 1 μM FL-peptide 30 substrate and 250 nL of testing compound (1% DMSO final) in assay buffer (100 mM HEPES pH 7.4, 10 mM MgCl2, 0.003% Brij35, 1 mM DTT). After incubation for 50 minutes at 30° C. the reaction was stopped with 10 μL of 0.5M EDTA pH 8.0, and then 25 μL of reaction mixture was transferred to reading plate and measured on Caliper EZ reader II. The substrate-product conversion rate was used as raw data for normalization and concentration-response curve (10 dose points with 4× serial dilution, starting with 10 μM) was plotted using Prism to calculate IC50 (M), pIC50 (−log IC50) and HillSlope value.

pIC50: −log10 of the molar value.

T2 sequence (P22607 whole entry, change not shown, the tested form may be a part): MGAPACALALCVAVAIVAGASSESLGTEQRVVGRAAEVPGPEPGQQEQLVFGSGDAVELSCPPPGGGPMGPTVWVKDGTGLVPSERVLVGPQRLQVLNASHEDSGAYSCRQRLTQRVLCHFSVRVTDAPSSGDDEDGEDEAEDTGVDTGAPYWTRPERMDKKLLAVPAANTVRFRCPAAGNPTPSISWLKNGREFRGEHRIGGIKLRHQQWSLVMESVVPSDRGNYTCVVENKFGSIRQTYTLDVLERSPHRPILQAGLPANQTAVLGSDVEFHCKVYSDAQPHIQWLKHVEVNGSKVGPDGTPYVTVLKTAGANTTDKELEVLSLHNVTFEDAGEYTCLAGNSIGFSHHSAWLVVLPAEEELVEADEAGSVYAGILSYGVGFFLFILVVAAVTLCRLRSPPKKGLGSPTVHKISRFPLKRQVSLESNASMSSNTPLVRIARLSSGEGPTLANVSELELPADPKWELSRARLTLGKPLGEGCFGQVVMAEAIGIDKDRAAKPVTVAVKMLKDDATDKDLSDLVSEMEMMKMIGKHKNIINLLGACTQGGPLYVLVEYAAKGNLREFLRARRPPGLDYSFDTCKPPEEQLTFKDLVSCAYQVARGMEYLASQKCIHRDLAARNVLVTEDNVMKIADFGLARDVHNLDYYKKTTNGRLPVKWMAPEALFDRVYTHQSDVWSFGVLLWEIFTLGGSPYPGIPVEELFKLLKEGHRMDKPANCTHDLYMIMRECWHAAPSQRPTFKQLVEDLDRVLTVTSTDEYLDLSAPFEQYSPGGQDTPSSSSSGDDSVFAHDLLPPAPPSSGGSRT
T1 sequence (P22607 whole entry V555M, the tested form may be a part): as the sequence (P22607 whole entry, change not shown, the tested form may be a part) above, with V555M counted along it

`C[C@H](Nc1c(-c2nc3cnc(N4CCOCC4)cc3[nH]2)c(=O)[nH]c2ccsc12)c1ncccn1` [Compound 2, (S)-6-(6-Morpholino-1H-imidazo[4,5-c]pyridin-2-yl)-7-((1-(pyrimidin-2-yl)ethyl)amino)thieno[3,2-b]pyridin-5(4H)-one]: the GI50 turned out to be 1.24 nM in assay [1] and 0.85 nM in assay [3]. Also, the values for the pIC50 in assay [2], in assay [4] and in assay [5] were 8.80, 6.05 and 9.51, respectively.
